Experiment [1] has as its target T1, porcine leukocyte 12/15-lipoxygenase (Sus scrofa, UniProt P16469).
T1 construct: purchased Cayman 60300
T1 sequence (P16469 1-663): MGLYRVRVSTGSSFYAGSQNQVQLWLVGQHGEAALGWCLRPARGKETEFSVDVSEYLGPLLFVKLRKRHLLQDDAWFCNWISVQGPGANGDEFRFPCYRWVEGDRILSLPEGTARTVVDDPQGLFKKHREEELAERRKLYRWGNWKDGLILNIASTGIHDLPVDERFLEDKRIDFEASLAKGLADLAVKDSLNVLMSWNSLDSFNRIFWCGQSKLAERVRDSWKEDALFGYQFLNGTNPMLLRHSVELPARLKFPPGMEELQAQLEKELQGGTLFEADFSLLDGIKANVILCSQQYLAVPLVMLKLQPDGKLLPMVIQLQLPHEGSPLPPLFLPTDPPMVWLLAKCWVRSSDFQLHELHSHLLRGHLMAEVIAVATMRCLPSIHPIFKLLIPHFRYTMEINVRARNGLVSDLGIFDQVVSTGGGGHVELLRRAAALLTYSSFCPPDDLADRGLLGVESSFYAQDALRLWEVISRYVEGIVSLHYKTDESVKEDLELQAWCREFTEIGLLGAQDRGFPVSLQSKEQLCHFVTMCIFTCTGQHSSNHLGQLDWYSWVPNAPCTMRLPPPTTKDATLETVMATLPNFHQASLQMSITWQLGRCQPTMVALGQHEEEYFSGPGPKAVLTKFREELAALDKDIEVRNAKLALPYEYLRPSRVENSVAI
Description: 12/15-Lipoxygenase Enzyme Assay (colorimetric, ferric oxidation of xylenol orange). In kind it is biochemical. The settings on record: 70 μM arachidonic acid, 10 minute incubation at room temperature, 5 concentrations in triplicate starting at 10 μM; read-out: inhibition of 12/15-Lipoxygenase, IC50. How it is done: This procedure was used for measuring the enzymatic activity of porcine leukocyte 12/15-lipoxygenase using a colorimetric method based on the ferric oxidation of xylenol orange.
Porcine Leukocyte 12/15-lipoxygenase (Cayman Cat # 60300) was used in this assay. Test compound and/or vehicle were added to 1.3 μL 12/15-lipoxygenase in 50 mM Tris-HCl buffer, pH 7.4. The reaction was initiated by addition of 70 μM arachidonic acid in Tris-HCl buffer, pH 7.4 and terminated after a 10 minute incubation at room temperature by addition of FOX reagent (25 mM sulfuric acid, 100 μM xylenol orange, 100 μM iron (II) sulphate, methanol:water 9:1). The yellow color of acidified xylenol orange was converted to a blue color by the lipid hydroperoxide-mediated oxidation of Fe^2+ ions and the interaction of the resulting Fe^3+ ions with the dye. The complex was allowed to form during a 1 hour incubation at room temperature with shaking. Absorbance of the Fe^3+ complex was then measured at […] using a spectrophotometer.
Negative controls contained enzyme during the incubation step but substrate was not added until after the FOX reagent.
Compounds are screened at 5 concentrations in triplicate starting at 10 μM.

The target in experiment [2] is T2, human recombinant 5-lipoxygenase (Homo sapiens, UniProt P09917).
T2 construct: purchased Cayman 60402
T2 sequence (P09917 1-674): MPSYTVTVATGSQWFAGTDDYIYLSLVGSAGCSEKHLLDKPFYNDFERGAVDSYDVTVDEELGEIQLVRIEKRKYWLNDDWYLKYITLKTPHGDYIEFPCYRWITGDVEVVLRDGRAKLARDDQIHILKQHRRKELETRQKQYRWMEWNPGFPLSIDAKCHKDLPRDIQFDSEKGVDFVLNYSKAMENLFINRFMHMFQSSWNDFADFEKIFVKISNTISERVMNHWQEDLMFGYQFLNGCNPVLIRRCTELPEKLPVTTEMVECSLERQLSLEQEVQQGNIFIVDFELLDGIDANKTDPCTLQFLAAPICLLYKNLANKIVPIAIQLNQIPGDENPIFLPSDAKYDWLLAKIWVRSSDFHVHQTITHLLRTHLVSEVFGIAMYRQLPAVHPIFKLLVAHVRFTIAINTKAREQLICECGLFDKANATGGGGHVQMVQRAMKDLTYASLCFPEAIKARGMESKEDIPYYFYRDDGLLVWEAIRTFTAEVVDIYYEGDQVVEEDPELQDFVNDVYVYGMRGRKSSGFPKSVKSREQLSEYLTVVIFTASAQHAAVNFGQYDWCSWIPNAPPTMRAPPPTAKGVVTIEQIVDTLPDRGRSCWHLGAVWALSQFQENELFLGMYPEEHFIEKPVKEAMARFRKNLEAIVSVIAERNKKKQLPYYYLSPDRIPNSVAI
Description: 5-Lipoxygenase Enzyme Assay (colorimetric, ferric oxidation of xylenol orange). The experiment is classed as biochemical. The settings on record: 70 μM arachidonic acid, 10 minute incubation at room temperature, 5 concentrations in triplicate starting at 10 μM; read-out: inhibition of 5-Lipoxygenase, IC50. How it is done: This procedure was used for measuring the enzymatic activity of human recombinant 5-lipoxygenase using a colorimetric method based on the ferric oxidation of xylenol orange.
Human recombinant 5-lipoxygenase (Cayman Cat # 60402) was used in this assay. The test compound and/or vehicle was added to 0.5 μL 5-lipoxygenase in 50 mM Tris-HCl buffer, pH 7.4. The reaction was initiated by addition of 70 μM arachidonic acid in Tris-HCl buffer, pH 7.4, and terminated after a 10 minute incubation at room temperature by addition of FOX reagent (25 mM sulfuric acid, 100 μM xylenol orange, 100 μM iron (II) sulphate, methanol:water 9:1). The yellow color of acidified xylenol orange was converted to a blue color by the lipid hydroperoxide-mediated oxidation of Fe^2+ ions and the interaction of the resulting Fe^3+ ions with the dye. The complex was allowed to form during a 1 hour incubation at room temperature with shaking. Absorbance of the Fe^3+ complex was then measured at […] using a spectrophotometer.
Negative controls contained enzyme during the incubation step but substrate was not added until after the FOX reagent. Compounds were screened at 5 concentrations in triplicate starting at 10 μM.

With `CO/N=C1/Cc2c(C)c(O)c(C)c(C)c2OC1(C)C` [6-hydroxy-2,2,5,7,8-pentamethylchroman-3-one O-methyl oxime], in experiment [1], the IC50 was less than 5 µM.
Regarding `Cc1c(C)c2c(c(C)c1O)C(=NN(C)C)CC(C)(C)O2` [6-Hydroxy-2,2,5,7,8-pentamethyl-2,3-dihydro-4H-chromen-4-one dimethylhydrazone], the IC50 in experiment [2] was less than 3 µM.
Take `Cc1c(C)c2c(c(C)c1O)C(O)CC(C)(C)O2` (centres unmarked) [2,2,5,7,8-pentamethylchroman-4,6-diol]: the values for the IC50 in experiment [2] and in experiment [1] were less than 3 µM and less than 5 µM, respectively.
The matching figures for `CON=C1CC(C)(C)Oc2c(C)c(C)c(O)c(C)c21` [6-Hydroxy-2,2,5,7,8-pentamethyl-chroman-4-one O-methyl-oxime]: less than 3 µM and less than 5 µM.
The matching figures for `CONC1CC(C)(C)Oc2c(C)c(C)c(O)c(C)c21` (centres unmarked) [4-Methoxyamino-2,2,5,7,8-pentamethyl-chroman-6-ol]: less than 3 µM and less than 5 µM.
The matching figures for `CON=C1CC(C)(C)Sc2c(C)c(C)c(O)c(C)c21` [6-Hydroxy-2,2,5,7,8-pentamethyl-thiochroman-4-one O-methyl-oxime]: less than 3 µM and less than 5 µM.
For `Cc1c(O)cc2c(c1C)OC(C)(C)CC2O` (centres unmarked) [2,2,7,8-tetramethylchroman-4,6-diol], the IC50 in experiment [2] was less than 3 µM.

These data come from patent US20060193797A1, “Chroman derivatives as lipoxygenase inhibitors” (Galileo Pharmaceuticals, Inc, priority 2005, published 2006).
